“Also recorded” adds a separate entry of the source.
Key:
Format in all cases: cell-based, mouse
[1] = tested on: C2C12 cells; assay: G-418 selection of untransfected and neo-transfected C2C12 cells; settings: 500 μg/ml G-418, 11 days
Protocol: The Bcl-2 promoter-neo vector was prepared by using HindIII and MluI to excise the RSV promoter of pRSVneo (Gorman et al., Science 221:551-553 (1983)), after which an ˜2.6 kb PstI fragment of the human Bcl-2 promoter region (plasmid LB124; Chen et al., Mol. Cell. Biol. 15, 3840-3847 (1995)) was blunt-end ligated to the promotorless neo plasmid. C2C12 cells were transfected with Bcl-2-neo or pSV2neo using LIPOFECTAMINE™ (3:1 (w/w) 2,3-dioleyloxy-N-[2(spermine-carboxamido)ethyl]-N,N-dimethyl-1-propanaminiumtrifluoroacetate and dioleoyl phosphatidylethanolamine) (Gibco-BRL) and selected with G-418 (Dominov et al., Dev. Genet. 19, 108-118 (1996)).
To determine whether Bcl-2-expressing cells could function as stem cells, the differentiation of modified C2C12 cells that were selected based on their ability to express a Bcl-2 promoter fragment was examined. C2C12 cells were transfected with a plasmid in which expression of neomycin phosphotransferase was under the control of an ˜2.6 kb fragment of the human Bcl-2 promoter (Chen and Boxer, Mol. Cell. Biol. 15, 3840-3847 (1995)). From these transfections, four independent G-418-resistant lines (termed Bcl-2-neo cells) were isolated. […] In contrast, this treatment killed all untransfected C2C12 control cells and had no effect on C2C12 cells transfected with the ubiquitously expressed pSV2neo (FIG. 4). When transferred to fresh growth medium without G-418, the selected Bcl-2-neo cells resumed proliferation (FIG. 4) and were able to form multinucleate myotubes when switched to differentiation medium at confluence (not shown).

[2] = tested on: C2C12 cells; assay: Percentage of Bcl-2-expressing cells after apoptosis induction (immunostaining); settings: serum-free medium with staurosporine; increased from less than 20%
Protocol: Apoptosis was induced by transferring the cells to serum-free differentiation medium, with or without 0.5 μM staurosporine, and cell viability was measured by the MTT assay of mitochondrial function (Jacobsen et al., EMBO J. 13, 1899-1910 (1994)).
The hamster mAb, 3 F11, is specific for mouse Bcl-2 (Krajewski et al., Cancer Res. 53, 4701-4714 (1993)) and was used at 25 μg/ml.

[3] = tested on: C2C12 cells; assay: MTT assay of mitochondrial function (cell viability) after apoptosis induction; settings: serum-free medium with 0.5 μM staurosporine, compared to growth medium or 2% HS; 1-2 days
Protocol: C2C12 and Sol8 cells were maintained in growth medium (DMEM with 15% fetal bovine serum, 2 mM L-glutamine, 10 mM HEPES, pH 7.4, and 100 U/ml penicillin) and induced to form myotubes in differentiation medium (growth medium with 2% horse serum in place of fetal bovine serum) (Yaffe et al., Nature 270, 725-727 (1977); Blau et al., Science 230, 758-766 (1985); and Montarras et al., New Biologist 3, 592-600 (1991)). […] Apoptosis was induced by transferring the cells to serum-free differentiation medium, with or without 0.5 μM staurosporine, and cell viability was measured by the MTT assay of mitochondrial function (Jacobsen et al., EMBO J. 13, 1899-1910 (1994)).
In this experiment, apoptosis was induced and Bcl-2 expression, cell viability, and differentiation capability were examined in cultures of myogenic cells.

Compound	effect on C2C12 cells carrying neo under SV40 promoter (pSV2neo) [1]	survival of C2C12 cells carrying Bcl-2 promoter-neo fusion gene (Bcl-2-neo) [1]	survival of untransfected C2C12 cells (control) [1]	percentage of muscle stem cells in the population [2]	number of viable C2C12 cells [3]
CN[C@@H]1[C@@H](O)[C@@H](O[C@@H]2[C@@H](O)[C@H](O[C@H]3O[C@H]([C@@H](C)O)[C@@H](O)[C@H](O)[C@H]3N)[C@@H](N)C[C@H]2N)OC[C@]1(C)O [G-418]	no effect	a portion of C2C12 cells that carry a Bcl-2 promoter-neo fusion gene (Bcl-2-neo) survived; also recorded: a portion of the cells remained viable	killed all	–	–
CN[C@@H]1C[C@H]2O[C@@](C)([C@@H]1OC)n1c3ccccc3c3c4c(c5c6ccccc6n2c5c31)C(=O)NC4 [staurosporine]	–	–	–	50-80%	greatly reduced; also recorded: decreased
